Reference: patent US6036941A, “Fluorogenic substrates for diagnosis and photodynamic treatment of tumors” (Consiglio Nazionale Delle Ricerche, priority 1995, dated 2000)

How the values were obtained:
[1] = system: purified esterase enzyme of pig liver; assay: Enzyme hydrolysis by purified pig liver esterase, followed fluorometrically; assay type: biochemical; settings: hydrolysis in solution, phosphate buffer 0.2 M pH 6.85, 20° C., esterase 25 U/ml; read-out: enzyme hydrolysis constant Km
Procedure: To the solution of Rose Bengal acetate 3×10^-5 M in phosphate buffer 0.2 M (pH 6.85) was added the purified esterase enzyme of pig liver (Sigma Chem, Co., GB) at the final concentration of 25 U/ml. The reaction was performed at room temperature (20° C.) and the formation of the product was measured fluorometrically (excitation 525 nm, emission 565 nm). In a second group of experiments, to the reaction solution was added human albumin (Sigma Chem. Co, GB) at the concentration of 0.1 mg/ml, better to simulate the conditions of hydrophobicity to be met in the cells. In these conditions, the appearance of the fluorescence was accelerated.
The kinetics of hydrolysis was followed by determining the intensity of fluorescence at 565 nm corresponding to the peak of emission of Rose Bengal. Examples of curves of hydrolysis kinetics are shown in FIG. 3 in which the curve (a) represents the intensity of fluorescence in time of a solution of Rose Bengal acetate subjected to hydrolysis in the presence of albumin with esterase, and the curve (b) represent the intensity of fluorescence of the solution of Rose Bengal acetate with albumin, in the absence of esterase, at the concentration of 3×10^-5 M.

rat glioma (C6) cells [2] = assay: Intracellular accumulation and hydrolysis kinetics in C6 cell cultures; assay type: cell-based
Procedure: Evaluations of the kinetics of intracellular accumulation of Rose Bengal acetate were performed on cultures of an established cell line of rat glioma (C6) which grows as a monolayer. This cell line is widely used for pharmaco-kinetic studies of fluorescent substances with photosensitisation activity by virtue of its rapid proliferation activity and the possibility of modifying the physiological activities of the cells.
It is particularly important that, principally in short-term treatments, a continuous increase of intracellular Rose Bengal is recorded in the cells treated with the acetylated species, even when the cells are transferred into a medium devoid of this substance. This can easily be interpreted in terms of the balance between the processes of incorporation and hydrolysis. Since the process of incorporation is rapider than that of hydrolysis, inside the cells an accumulation is created of hydrolysable substance on which the enzyme can continue to effect its action through time.
Further, it is interesting to note that the kinetics of hydrolysis of Rose Bengal acetate is accelerated by the cellular environment: the Km passes from about 10^-3 M in conditions of hydrolysis in solution to about 10^-6 M in the cells.

rat glioma (C6) cells [3] = assay: Cellular vitality tests (trypan blue and fluorescein diacetate methods); assay type: cell-based; settings: incubation for 4 h at concentrations up to 1×10^-4 M, no irradiation
Text: The hydrophobicity of the intracellular environment would therefore seem to create the structural condition that favours the action of the enzyme. […] The finding relative to Rose Bengal agrees with the literature (R. P. G. Feenstra and S. C. G. Tseng, Ophthalmology, 99 605, 1992).

rat glioma (C6) cells [4] = assay: Phototoxicity after irradiation at 540±5 nm, cell count 24 h later; assay type: cell-based; settings: 2 mw/cm^2, up to 2.4 J, compared with Rose Bengal (FIG. 5)
Text: The cells treated with Rose Bengal or with Rose Bengal acetate as described above were submitted to irradiation at 540±5 nm by a Xe 75 W lamp and an interference filter.
Irradiation was realised with a power of 2 mw/cm^2 for various times until the administration of a maximum dose of 2.4 J, in accordance with the protocols normally used in tests of phototoxicity. The irradiation was effected in HBSS buffer (Hank's Balanced Salt Solution, J. H. Hanks and R. E. Wallace, Proc. Natl. Exp. Biol. Med 71, 196, 1949) in the absence of the drug in the culture medium to avoid secondary effects. Twenty-four hours after irradiation the cells adhering to the slide on which they had been grown were counted. The expression of phototoxicity was defined as the ratio between the number of cells present after the treatment and those counted on the untreated controls. […] This effect relates directly to the quantity of fluorescent substance with photosensitisation activity produced by the enzyme activity, evaluated as fluorescence intensity at 580 nm (FIG. 4).

[5] = system: normal fibroblast line and sarcoma-derived cell line of Galliera rats; assay: Intracellular drug accumulation, normal fibroblasts versus sarcoma-derived cells; assay type: cell-based, rat
Procedure: A comparison of intracellular drug accumulation was made between normal and tumour cells. As a model, a normal fibroblast line from embryos (6-10 days) of Galliera strain rats, and a stabilised cell line derived from sarcoma spontaneously growing in syngeneic Galliera rats, were used. After incubation with Rose Bengal acetate at a concentration of 5×10^-6 M for 2 hours, a ratio of intracellular photosensitizer concentration of about 16 was measured between normal and transformed cells, in terms of fluorescence intensity at 580 nm. The ratio of the esterase activity in the two cell lines was found less than the ratio shown by the photosensitizer: this can be explained by the fact that the Rose Bengal produced by the enzyme activity is a polar compound. It must be considered that in this form Rose Bengal requires an active transport mechanism to be released (E. Prosperi, A. C. Croce et al. Cytometry, 7, 70-75, 1986), and that the tumour cells are characterised by an impaired metabolic condition (J. Szollosi, P. Kertai et al. J. Histochem. Cytochem. 29, 503-510, 1982), that enhances the photosensitizer accumulation.
The same cell lines, treated with the most commonly used photosensitizer, Photofrin®, at the concentration of 2×10^-5 M for a time of 2 hours yielded a ratio value of about 8 (FIG. 6).

[6] = system: IGROV cells (ovarian carcinoma); assay: Photosensitizer accumulation in drug-resistant versus sensitive IGROV cells; assay type: cell-based, human; settings: Rose Bengal acetate 5×10^-5 to 10^-7 M, Photofrin 10^-5 M, fluorescence intensity
Procedure: (§1) Tests were also performed on cell lines derived from human tumours: POGB, from bronchial microcytoma, and IGROV, from ovarian carcinoma. In particular, for each line a comparison was made between the cells sensitive and resistant to chemotherapeutic agents. […] Results related to Rose Bengal treatment were compared with those obtained with Photofrin®, a well-establishes photosensitizer.
(§2) The cells were treated with Rose Bengal acetate at doses between 5×10^-5 and 10^-7 M, and with 10^-5 M Photofrin®. The intracellular accumulation of photosensitizer was evaluated in terms of fluorescence intensity. Giving a value of 100 to the photosensitizer amount present in each sensitive cell line, the amount of photosensitizer retained in the corresponding resistant cell line is 100% and 85% for Photofrin and 170% and 120% for Rose Bengal, in IGROV and POGB respectively. A more evident difference of the accumulation capacity between Photofrin and Rose Bengal can be observed in the case of B16 cells, a line derived from mouse melanoma. In this case the amount of Photofrin® accumulated in resistant cells is about 65% of that in sensitive ones, while the amount of Rose Bengal is about 120%.

[7] = system: POGB cells (bronchial microcytoma); assay: Photosensitizer accumulation in drug-resistant versus sensitive POGB cells; assay type: cell-based, human; settings: Rose Bengal acetate 5×10^-5 to 10^-7 M, Photofrin 10^-5 M, fluorescence intensity
Procedure: as §1, §2

[8] = system: B16 cells (mouse melanoma); assay: Photosensitizer accumulation in drug-resistant versus sensitive B16 cells; assay type: cell-based
Procedure: as §2

[9] = Rose Bengal in blood samples of treated mice; assay type: in vivo; settings: Swiss mice treated with 8 mg/kg
Procedure: Considering the possible systemic use of Rose Bengal acetate, the effect was evaluated of the serum esterase activity on the hydrolysis kinetics of the fluorogenic substrate. The esterase activity of the blood can induce an extracellular hydrolysis of Rose Bengal acetate. The kinetics, however, of this hydrolysis is slow enough to permit the cellular compartment to accumulate and hydrolyse the Rose Bengal acetate according to the intracellular esterase activity. In any case the hydrolysed Rose Bengal is quickly eliminated from the blood.

[10] = system: lymphocytes and granulocytes; assay: Hydrolysis activity in white blood cells on smears; assay type: cell-based

Row | Molecule | Km [1] | Km (rat glioma (C6) cells [2]) | cell mortality (rat glioma (C6) cells [3]) | phototoxicity (cell survival) (rat glioma (C6) cells [4]) | ratio of intracellular photosensitizer concentration between normal and transformed cells ([5]; 2 h, 5 µM) | amount of photosensitizer retained in resistant cell line (sensitive line = 100) [6] | amount of photosensitizer retained in resistant cell line (sensitive line = 100) [7] | amount accumulated in resistant cells relative to sensitive ones [8] | Rose Bengal in the blood [9] | hydrolysis activity in lymphocytes, less than in granulocytes [10] | ratio of intracellular photosensitizer concentration between normal and transformed cells ([5]; 2×10^-5 M for 2 hours)
1 | CC(=O)Oc1c(I)cc2c(-c3c(Cl)c(Cl)c(Cl)c(Cl)c3C(=O)O)c3cc(I)c(=O)c(I)c-3oc2c1I [Rose Bengal acetate] | ~1000 µM | ~1 µM | no significant cell mortality | strong phototoxic effect | about 16 | 170% | 120% | about 120% | do not present appreciable quantities | 40% | 
2 | O=C(O)c1c(Cl)c(Cl)c(Cl)c(Cl)c1-c1c2cc(I)c(=O)c(I)c-2oc2c(I)c(O)c(I)cc12 [Rose Bengal, reference compound] |  |  | no significant cell mortality |  |  |  |  |  |  |  | 
3 | CC(=O)Oc1ccc2c(c1)Oc1cc(OC(C)=O)ccc1C21OC(=O)c2ccccc21 [diacetate fluorescein, reference compound] | 5 µM |  |  |  |  |  |  |  |  |  | 
4 | Photofrin® [reference compound] |  |  |  |  |  | 100% | 85% | about 65% |  |  | about 8
